From patent publication US10519154B2, “7-substituted 1-pyridyl-naphthyridine-3-carboxylic acid amides and use thereof” (Bayer Pharma Aktiengesellschaft, priority 2016, dated 2019) come the findings set out here.

The test addresses T1, human M2 receptor (Homo sapiens, UniProt P08172).
T1 sequence (P08172 1-466): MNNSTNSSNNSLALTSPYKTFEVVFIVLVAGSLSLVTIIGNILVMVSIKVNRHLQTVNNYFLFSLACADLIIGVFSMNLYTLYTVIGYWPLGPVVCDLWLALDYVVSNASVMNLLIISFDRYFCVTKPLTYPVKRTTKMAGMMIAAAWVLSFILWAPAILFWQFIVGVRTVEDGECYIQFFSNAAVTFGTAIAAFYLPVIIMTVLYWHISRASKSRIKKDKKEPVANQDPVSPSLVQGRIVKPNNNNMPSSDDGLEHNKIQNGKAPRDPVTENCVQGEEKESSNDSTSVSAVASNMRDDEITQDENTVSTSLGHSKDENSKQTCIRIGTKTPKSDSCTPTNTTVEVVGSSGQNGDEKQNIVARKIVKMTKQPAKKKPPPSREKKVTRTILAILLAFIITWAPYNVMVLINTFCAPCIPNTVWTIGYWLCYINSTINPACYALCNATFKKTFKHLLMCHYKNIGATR
Description: Functional M2-GIRK1/4 activation test: allosteric potency (EC50) and efficiency. The conditions noted are these: for EC50: Receptor activity EC50, CHO-DUKX-M2-GIRK cells, acetylcholine at EC20, in some cases mean of two or more determinations; for Emax: read-out: Efficiency, boosting of the acetylcholine effect at EC20 acetylcholine concentration; for Emax / Efficiency: CHO-DUKX-M2-GIRK cells; for Efficiency: boosting of the acetylcholine effect at EC20 acetylcholine concentration.

Take `O=C(NC(C(F)(F)F)C(F)(F)F)c1cn(-c2ncc(F)cc2F)c2nc(N3C[C@H](O)[C@@H](O)C3)ccc2c1=O` [Example 60, 1-(3,5-Difluoropyridin-2-yl)-7-[(3S,4S)-3,4-dihydroxypyrrolidin-1-yl]-N-(1,1,1,3,3,3-hexafluoropropan-2-yl)-4-oxo-1,4-dihydro-1,8-naphthyridine-3-carboxamide]: the EC50 was 0.275 µM and the Emax turned out to be 100%.
Taken in the same sequence, the figures for `O=C(NC1(C(F)(F)F)CCCC1)c1cn(-c2ncc(F)cc2F)c2nc(N3C[C@@H](O)CC3=O)ccc2c1=O` [Example 79, 1-(3,5-Difluoropyridin-2-yl)-7-[(4S)-4-hydroxy-2-oxopyrrolidin-1-yl]-4-oxo-N-[1-(trifluoromethyl)cyclopentyl]-1,4-dihydro-1,8-naphthyridine-3-carboxamide] were 0.054 µM and 100%.
For `CC[C@H](NC(=O)c1cn(-c2ncc(F)cc2F)c2nc(N3CC(F)C3)ccc2c1=O)C(F)(F)F` [Example 132, 1-(3,5-Difluoropyridin-2-yl)-7-(3-fluoroazetidin-1-yl)-4-oxo-N-[(2S)-1,1,1-trifluorobutan-2-yl]-1,4-dihydro-1,8-naphthyridine-3-carboxamide] the same measures were 0.325 µM and 98%.
Turning to `CC[C@@H](NC(=O)c1cn(-c2ncc(F)cc2Cl)c2nc(N3CCC(C)(O)C3)ccc2c1=O)C(F)(F)F` (mixture of isomers) [Example 49, 1-(3-Chloro-5-fluoropyridin-2-yl)-7-[3-hydroxy-3-methylpyrrolidin-1-yl]-4-oxo-N-[(2R)-1,1,1-trifluorobutan-2-yl]-1,4-dihydro-1,8-naphthyridine-3-carboxamide], a half-maximal effect (EC50) was put at 0.56 µM and the Emax stood at 97%.
Turning to `CC(NC(=O)c1cn(-c2ncc(F)cc2F)c2nc(N3C[C@@H](O)[C@H](O)C3)ccc2c1=O)C(F)(F)C(F)(F)F` (single isomer, unassigned) [Example 89], it took 0.275 µM to reach a half-maximal effect (EC50) and the Emax amounted to 98%.
Taken in the same sequence, the figures for `CC1C(=O)N(c2ccc3c(=O)c(C(=O)N[C@@H](C)C(F)(F)F)cn(-c4ncc(F)cc4F)c3n2)CC1O` (mixture of isomers) [Example 112, 1-(3,5-Difluoropyridin-2-yl)-7-[4-hydroxy-3-methyl-2-oxopyrrolidin-1-yl]-4-oxo-N-[(2S)-1,1,1-trifluoropropan-2-yl]-1,4-dihydro-1,8-naphthyridine-3-carboxamide] were 0.525 µM and 98%.
For `O=C(NC(C(F)(F)F)C(F)(F)F)c1cn(-c2ncc(F)cc2F)c2nc(N3CCCC[C@@H]3CO)ccc2c1=O` [Example 178, 1-(3,5-Difluoropyridin-2-yl)-N-(1,1,1,3,3,3-hexafluoropropan-2-yl)-7-[(2R)-2-(hydroxymethyl)piperidin-1-yl]-4-oxo-1,4-dihydro-1,8-naphthyridine-3-carboxamide] the same measures were 0.056 µM and 100%.
On to `O=C(NC1CCC1)c1cn(-c2ncc(F)cc2F)c2nc(N3CCNC3=O)ccc2c1=O` [Example 146, N-Cyclobutyl-1-(3,5-difluoropyridin-2-yl)-4-oxo-7-(2-oxoimidazolidin-1-yl)-1,4-dihydro-1,8-naphthyridine-3-carboxamide], for which the EC50 was determined as 0.91 µM and the Emax came to 96%.
Compound `O=C(NC(c1ccc(F)cc1)C(F)(F)F)c1cn(-c2ncc(F)cc2F)c2nc(N3C[C@@H](O)CC3=O)ccc2c1=O` (single isomer, unassigned) [Example 13] came in with an EC50 of 0.13 µM and an Efficiency of 99.50%.
As for `O=C(NC(CC(F)(F)F)C(F)(F)F)c1cn(-c2ncc(F)cc2F)c2nc(N3C[C@@H](O)[C@H](O)C3)ccc2c1=O` (stereo partly drawn) [Example 160, 1-(3,5-Difluoropyridin-2-yl)-7-[(3R,4R)-3,4-dihydroxypyrrolidin-1-yl]-N-[1,1,1,4,4,4-hexafluorobutan-2-yl]-4-oxo-1,4-dihydro-1,8-naphthyridine-3-carboxamide], a half-maximal effect (EC50) was put at 0.155 µM and the Emax was 90.5%.
For `CC(C)(C)[C@H](NC(=O)c1cn(-c2ncc(F)cc2F)c2nc(N3CCNC3=O)ccc2c1=O)C(F)(F)F` [Example 100, 1-(3,5-Difluoropyridin-2-yl)-4-oxo-7-(2-oxoimidazolidin-1-yl)-N-[(2S)-1,1,1-trifluoro-3,3-dimethylbutan-2-yl]-1,4-dihydro-1,8-naphthyridine-3-carboxamide] the same measures were 0.026 µM and 100%.
For `O=C(NC(C(F)(F)F)C(F)(F)F)c1cn(-c2ncc(F)cc2F)c2nc(N3CCNC3=O)ccc2c1=O` [Example 158, 1-(3,5-Difluoropyridin-2-yl)-N-(1,1,1,3,3,3-hexafluoropropan-2-yl)-4-oxo-7-(2-oxoimidazolidin-1-yl)-1,4-dihydro-1,8-naphthyridine-3-carboxamide] the same measures were 0.115 µM and 90.5%.
Taken in the same sequence, the figures for `O=C(NC(c1ccccc1Cl)C(F)(F)F)c1cn(-c2ncc(F)cc2F)c2nc(N3CCNC3=O)ccc2c1=O` (single isomer, unassigned) [Example 148, N-[1-(2-Chlorophenyl)-2,2,2-trifluoroethyl]-1-(3,5-difluoropyridin-2-yl)-4-oxo-7-(2-oxoimidazolidin-1-yl)-1,4-dihydro-1,8-naphthyridine-3-carboxamide] were 0.066 µM and 100%.
For the compound `CCC(NC(=O)c1cn(-c2ncc(F)cc2F)c2nc(N3CCNC3=O)ccc2c1=O)C(F)(F)C(F)(F)F` (single isomer, unassigned) [Example 166, 1-(3,5-Difluoropyridin-2-yl)-4-oxo-7-(2-oxoimidazolidin-1-yl)-N-[1,1,1,2,2-pentafluoropentan-3-yl]-1,4-dihydro-1,8-naphthyridine-3-carboxamide], the response was half-maximal at 0.03 µM (EC50) and the Efficiency amounted to 81.00%.
For `O=C(Nc1c(Cl)cccc1Cl)c1cn(-c2ncc(F)cc2F)c2nc(N3C[C@H](O)[C@@H](O)C3)ccc2c1=O` [Example 68, N-(2,6-Dichlorophenyl)-1-(3,5-difluoropyridin-2-yl)-7-[(3S,4S)-3,4-dihydroxypyrrolidin-1-yl]-4-oxo-1,4-dihydro-1,8-naphthyridine-3-carboxamide], the EC50 was found to be 0.195 µM and the Emax came out at 96%.
Regarding `CC(C)(C)[C@@H](NC(=O)c1cn(-c2ncc(F)cc2F)c2nc(N3C[C@@H](O)[C@H](O)C3)ccc2c1=O)C(F)(F)F` [Example 86, 1-(3,5-Difluoropyridin-2-yl)-7-[(3R,4R)-3,4-dihydroxypyrrolidin-1-yl]-4-oxo-N-[(2R)-1,1,1-trifluoro-3,3-dimethylbutan-2-yl]-1,4-dihydro-1,8-naphthyridine-3-carboxamide], the EC50 worked out at 0.019 µM and the Emax turned out to be 100%.
For `O=C(NC(C(F)(F)F)C(F)(F)F)c1cn(-c2ncc(F)cc2F)c2nc(N3CCC[C@@H]3CO)ccc2c1=O` [Example 180, 1-(3,5-Difluoropyridin-2-yl)-N-(1,1,1,3,3,3-hexafluoropropan-2-yl)-7-[(2R)-2-(hydroxymethyl)pyrrolidin-1-yl]-4-oxo-1,4-dihydro-1,8-naphthyridine-3-carboxamide] the same measures were 0.089 µM and 100%.
For `O=C(N[C@H](C1CC1)C(F)(F)F)c1cn(-c2ncc(F)cc2Cl)c2nc(N3C[C@@H](O)[C@@H](O)C3)ccc2c1=O` [Example 50, 1-(3-Chloro-5-fluoropyridin-2-yl)-N-[(1R)-1-cyclopropyl-2,2,2-trifluoroethyl]-7-[(3R,4S)-3,4-dihydroxypyrrolidin-1-yl]-4-oxo-1,4-dihydro-1,8-naphthyridine-3-carboxamide] the same measures were 0.73 µM and 92%.
As for `O=C(N[C@H](C1CC1)C(F)(F)F)c1cn(-c2ncc(F)cc2F)c2nc(N3CCN(CCO)C3=O)ccc2c1=O` [Example 121, N-[(1R)-1-Cyclopropyl-2,2,2-trifluoroethyl]-1-(3,5-difluoropyridin-2-yl)-7-[3-(2-hydroxyethyl)-2-oxoimidazolidin-1-yl]-4-oxo-1,4-dihydro-1,8-naphthyridine-3-carboxamide], the response was half-maximal at 0.32 µM (EC50) and the Emax was determined as 99%.
For `CC(C)(CC(F)(F)F)NC(=O)c1cn(-c2ncc(F)cc2F)c2nc(N3C[C@@H](O)CC3=O)ccc2c1=O` [Example 80, 1-(3,5-Difluoropyridin-2-yl)-7-[(4S)-4-hydroxy-2-oxopyrrolidin-1-yl]-4-oxo-N-(4,4,4-trifluoro-2-methylbutan-2-yl)-1,4-dihydro-1,8-naphthyridine-3-carboxamide] the same measures were 0.12 µM and 100%.
Taken in the same sequence, the figures for `CCC(NC(=O)c1cn(-c2ncc(F)cc2F)c2nc(N3C[C@@H](O)[C@H](O)C3)ccc2c1=O)C(F)(F)C(F)(F)F` (single isomer, unassigned) [Example 96] were 0.068 µM and 100%.
For `CC(NC(=O)c1cn(-c2ncc(F)cc2F)c2nc(N3CCC(O)(CO)CC3)ccc2c1=O)C(F)(F)C(F)(F)F` (single isomer, unassigned) [Example 177, 1-(3,5-Difluoropyridin-2-yl)-7-[4-hydroxy-4-(hydroxymethyl)piperidin-1-yl]-4-oxo-N-(3,3,4,4,4-pentafluorobutan-2-yl)-1,4-dihydro-1,8-naphthyridine-3-carboxamide] the same measures were 0.038 µM and 100%.
